Results from ChEMBL document CHEMBL1255553, “Unusual antimalarial meroditerpenes from tropical red macroalgae” (Bioorg Med Chem Lett, 2010).
In brackets after ≈: the same amount, converted by molar mass.

Columns and labels:
[1] = test system: Staphylococcus aureus; test: Antimicrobial activity against methicillin-resistant Staphylococcus aureus; format: functional
[2] = test system: Candida albicans; test: Antimicrobial activity against amphotericin B-resistant Candida albicans; format: functional
[3] = test system: Plasmodium falciparum; test: Antimalarial activity against Plasmodium falciparum; format: functional, organism-based
[4] = test system: Enterococcus faecium; test: Antimicrobial activity against vancomycin-resistant Enterococcus faecium; format: functional
[5] = test system: SHP77; test: Anticancer activity against human SHP77 cells; format: functional, cell-based
[6] = test system: CCRF-CEM; test: Anticancer activity against human CCRF-CEM cells; format: functional, cell-based

With CC1=C2Cc3cc(ccc3O)C(=O)O[C@H](C(C)(C)Br)CC[C@](C)(O)[C@H](Br)CC[C@]2(C)[C@@H](Br)CC1 the MIC [1] was 5.9 µM (≈ 3.93 µg/mL), the MIC [2] was 49 µM (≈ 32.6 µg/mL) and the IC50 [3] was 0.7 µM. It also gave an MIC [4] of 5.9 µM (≈ 3.93 µg/mL).
Work on CC1=C2Cc3cc(ccc3O)C(=O)O[C@H](C(C)(C)O)CC[C@]3(C)O[C@H]3C/C=C(\C)C2CC1 (some centres not stated) yielded an MIC [2] of over 500 µM and an IC50 [3] of over 100 µM.
Cc1cc(O)c(C)c(CC[C@](C)(O)CCC[C@H](C)CCC[C@H](C)CCCC(C)C)c1O showed an MIC [1] of over 500 µM, an IC50 [3] of 190 µM and an MIC [4] of over 500 µM.
For Cc1cc(O)cc(CC[C@](C)(O)CCC[C@H](C)CCC[C@H](C)CCCC(C)C)c1O, the MIC [1] was over 500 µM, the MIC [3] was 220 µM (≈ 92.5 µg/mL) and the MIC [4] was over 500 µM.
With CC1=CC(=O)C=C(CC[C@](C)(O)CCC[C@H](C)CCC[C@H](C)CCCC(C)C)C1=O the MIC [1] was over 500 µM, the MIC [2] was over 500 µM and the IC50 [3] was 10 µM. For the same compound, the MIC [4] was over 500 µM.
CC(C)=CCC[C@@](C)(O)[C@@H]1CC/C(C)=C/CC/C(C)=C/Cc2cc(ccc2O)C(=O)O1 [CALLOPHYCOLIDE A] gave an IC50 [5] of 9.2 µM, an IC50 [6] of 7.5 µM and an MIC [1] of 9.1 µM (≈ 3.88 µg/mL). It also gave an MIC [2] of over 250 µM, an IC50 [3] of 5.2 µM and an MIC [4] of 9.1 µM (≈ 3.88 µg/mL).
